Reference: ChEMBL document CHEMBL1156187, “Discovery of a selective small-molecule melanocortin-4 receptor agonist with efficacy in a pilot study of sexual dysfunction in humans” (J Med Chem, 2010)

Legend:
Melanocortin receptor 4 [1] = molecular target: T1, Melanocortin receptor 4 (Homo sapiens, UniProt P32245); experiment: Agonist activity at human recombinant MC4 receptor expressed in CHO cells by cAMP responsive beta lactamase reporter gene assay; assay type: functional, cell-based
[2] = Lipophilicity, log D at pH 7.4; assay type: physicochemical; settings: buffer
[3] = Intrinsic clearance in human liver microsome measured per mg of protein; assay type: ADME; settings: liver microsomes
Melanocortin receptor 5 [4] = molecular target: T2, Melanocortin receptor 5 (Homo sapiens, UniProt P33032); experiment: Agonist activity at human recombinant MC5 receptor expressed in HEK293 cells assessed as cAMP accumulation by beta lactamase reporter gene assay relative to alpha melanocyte-stimulating hormone; assay type: functional, cell-based
T2 sequence (P33032 whole entry, the tested form may be a part): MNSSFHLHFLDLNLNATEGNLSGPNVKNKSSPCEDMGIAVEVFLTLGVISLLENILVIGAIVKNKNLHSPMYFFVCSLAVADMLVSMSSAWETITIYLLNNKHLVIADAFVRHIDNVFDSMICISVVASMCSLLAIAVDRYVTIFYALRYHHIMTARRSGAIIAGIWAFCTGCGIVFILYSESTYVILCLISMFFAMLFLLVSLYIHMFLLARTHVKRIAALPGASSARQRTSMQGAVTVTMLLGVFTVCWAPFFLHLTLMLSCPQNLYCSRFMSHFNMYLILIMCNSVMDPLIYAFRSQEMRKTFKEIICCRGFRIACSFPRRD

[5] = molecular target: T3, Melanocyte-stimulating hormone receptor (Homo sapiens, UniProt Q01726); experiment: Agonist activity at human recombinant MC1 receptor expressed in HEK293 cells assessed as cAMP accumulation by enzyme fragment complementation assay; assay type: functional, cell-based
Target sequence in this assay (Q01726 whole entry, the tested form may be a part): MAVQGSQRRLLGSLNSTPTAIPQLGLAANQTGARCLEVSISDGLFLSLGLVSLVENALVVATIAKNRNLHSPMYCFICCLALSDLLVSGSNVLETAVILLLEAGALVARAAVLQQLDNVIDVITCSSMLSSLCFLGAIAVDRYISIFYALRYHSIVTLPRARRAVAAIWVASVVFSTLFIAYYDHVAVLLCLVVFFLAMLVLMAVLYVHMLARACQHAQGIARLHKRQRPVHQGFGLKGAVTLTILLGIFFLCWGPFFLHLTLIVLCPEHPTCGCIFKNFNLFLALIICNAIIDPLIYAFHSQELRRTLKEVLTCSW

Melanocortin receptor 4 [6] = molecular target: T1, Melanocortin receptor 4; experiment: Displacement of [125I]-MT-II from human recombinant MC4 receptor expressed in CHO cells by scintillation counting
Melanocortin receptor 5 [7] = molecular target: T2, Melanocortin receptor 5; experiment: Agonist activity at human recombinant MC5 receptor expressed in HEK293 cells assessed as cAMP accumulation by beta lactamase reporter gene assay; assay type: functional, cell-based
Melanocortin receptor 3 [8] = molecular target: T4, Melanocortin receptor 3 (Homo sapiens, UniProt P41968); experiment: Agonist activity at human recombinant MC3 receptor expressed in CHO cells assessed as cAMP accumulation by enzyme fragment complementation assay; assay type: functional, cell-based
T4 sequence (P41968 whole entry, the tested form may be a part): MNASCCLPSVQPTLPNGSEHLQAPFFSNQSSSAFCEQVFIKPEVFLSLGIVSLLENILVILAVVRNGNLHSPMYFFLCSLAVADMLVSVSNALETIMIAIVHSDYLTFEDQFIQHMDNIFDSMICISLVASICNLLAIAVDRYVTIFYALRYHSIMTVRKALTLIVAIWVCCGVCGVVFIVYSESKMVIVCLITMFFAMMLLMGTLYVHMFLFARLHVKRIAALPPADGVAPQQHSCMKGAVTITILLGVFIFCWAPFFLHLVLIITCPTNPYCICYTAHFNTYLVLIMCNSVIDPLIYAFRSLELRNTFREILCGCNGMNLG

Melanocortin receptor 3 [9] = molecular target: T4, Melanocortin receptor 3; experiment: Agonist activity at human recombinant MC3 receptor expressed in CHO cells assessed as cAMP accumulation by enzyme fragment complementation assay relative to […]; assay type: functional, cell-based
[10] = molecular target: T3, Melanocyte-stimulating hormone receptor; experiment: Agonist activity at human recombinant MC1 receptor expressed in HEK293 cells assessed as cAMP accumulation by enzyme fragment complementation assay relative to alpha melanocyte-stimulating hormone; assay type: functional, cell-based
Target sequence in this assay (Q01726 whole entry, looked up, the tested form may be a part): as the sequence (Q01726 whole entry, the tested form may be a part) above

T1 sequence (P32245 whole entry): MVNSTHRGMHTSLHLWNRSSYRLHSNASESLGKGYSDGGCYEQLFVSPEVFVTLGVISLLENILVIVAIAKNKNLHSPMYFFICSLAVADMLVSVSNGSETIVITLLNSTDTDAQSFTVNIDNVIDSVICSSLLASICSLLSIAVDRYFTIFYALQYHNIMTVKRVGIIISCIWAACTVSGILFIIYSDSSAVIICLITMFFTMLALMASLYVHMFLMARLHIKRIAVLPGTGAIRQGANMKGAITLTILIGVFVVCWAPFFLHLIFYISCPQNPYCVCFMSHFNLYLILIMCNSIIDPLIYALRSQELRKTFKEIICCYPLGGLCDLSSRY

EC50 (Melanocortin receptor 4 [1])	microsomal CLint [3]	other results	Compound
147 nM	–	–	CCN1C[C@@H](C(=O)N2C[C@@H](C)[C@](O)(c3ccc(F)cc3)[C@@H](C)C2)[C@H](c2ccc(F)cc2F)C1
61 nM	73 µL/min/mg	logD [2]: 2.9; Emax (Melanocortin receptor 5 [4]): 92%; EC50 [5]: > 8250 nM; Ki (Melanocortin receptor 4 [6]): 355 nM; EC50 (Melanocortin receptor 5 [7]): 6410 nM; EC50 (Melanocortin receptor 3 [8]): > 13500 nM	CCN1C[C@@H](C(=O)N2C[C@@H](C)[C@](O)(c3cccc(F)c3)[C@@H](C)C2)[C@H](c2ccc(F)cc2F)C1
15 nM	–	Emax (Melanocortin receptor 5 [4]): 29%; Emax (Melanocortin receptor 3 [9]): 78%; EC50 [5]: > 16700 nM; Ki (Melanocortin receptor 4 [6]): 79 nM; EC50 (Melanocortin receptor 5 [7]): 960 nM; EC50 (Melanocortin receptor 3 [8]): 71 nM	C[C@@H]1CN(C(=O)[C@H]2CN(c3ccccn3)C[C@@H]2c2ccc(F)cc2F)C[C@H](C)[C@@]1(O)c1ccccc1
6 nM	52 µL/min/mg	logD [2]: 3.3; Emax (Melanocortin receptor 5 [4]): 74%; Emax (Melanocortin receptor 3 [9]): 81%; EC50 [5]: > 6470 nM; Ki (Melanocortin receptor 4 [6]): 97 nM; EC50 (Melanocortin receptor 5 [7]): 1800 nM; EC50 (Melanocortin receptor 3 [8]): 570 nM	C[C@@H]1CN(C(=O)[C@@H]2CN(C(C)(C)C)C[C@H]2c2ccc(F)cc2F)C[C@H](C)[C@@]1(O)c1cccc(F)c1
3630 nM	–	–	C[C@@H]1CN(C(=O)[C@@H]2CN(C(C)(C)C)C[C@H]2c2ccc(F)cc2F)C[C@H](C)[C@@]1(O)c1cccnc1
108 nM	< 7 µL/min/mg	logD [2]: 4.1	C[C@@H]1CN(C(=O)[C@@H]2CN(C(C)(C)C)C[C@H]2c2ccc(F)cc2F)C[C@H](C)[C@@]1(O)c1ccc(C(F)(F)F)cc1
347 nM	–	–	C[C@@H]1CN(C(=O)[C@@H]2CN(C(C)(C)C)C[C@H]2c2ccc(F)cc2F)C[C@H](C)[C@@]1(O)c1ccc(C#N)cc1
91 nM	34 µL/min/mg	logD [2]: 3.5	CC(C)N1C[C@@H](C(=O)N2C[C@@H](C)[C@](O)(c3ccc(Cl)cc3)[C@@H](C)C2)[C@H](c2ccc(F)cc2F)C1
374 nM	84 µL/min/mg	logD [2]: 3.1	COCCN1C[C@H](C(=O)N2C[C@@H](C)[C@](O)(c3ccccc3)[C@@H](C)C2)[C@@H](c2ccc(F)cc2F)C1
11100 nM	–	–	C[C@@H]1CN(C(=O)[C@@H]2CN(C(C)(C)C)C[C@H]2c2ccc(F)cc2F)C[C@H](C)[C@@]1(O)c1cncnc1
4 nM	310 µL/min/mg	logD [2]: 3.7	C[C@@H]1CN(C(=O)[C@H]2CN(c3cccnn3)C[C@@H]2c2ccc(F)cc2F)C[C@H](C)[C@@]1(O)c1ccc(F)cc1
> 10000 nM	–	–	C[C@@H]1CN(C(=O)[C@H]2CN(C(C)(C)C)C[C@@H]2c2ccc(F)cc2F)C[C@H](C)[C@@]1(O)c1ccccc1
6 nM	243 µL/min/mg	logD [2]: 3.3; Emax (Melanocortin receptor 3 [9]): 89%; EC50 [5]: > 3070 nM; Ki (Melanocortin receptor 4 [6]): 10 nM; EC50 (Melanocortin receptor 5 [7]): > 20000 nM; EC50 (Melanocortin receptor 3 [8]): 490 nM	C[C@@H]1CN(C(=O)[C@H]2CN(c3cccnn3)C[C@@H]2c2ccc(F)cc2F)C[C@H](C)[C@@]1(O)c1ccccc1
365 nM	–	Emax (Melanocortin receptor 5 [4]): 100%; EC50 [5]: > 6150 nM; Ki (Melanocortin receptor 4 [6]): 346 nM; EC50 (Melanocortin receptor 5 [7]): 15000 nM; EC50 (Melanocortin receptor 3 [8]): > 33400 nM	C[C@@H]1CN(C(=O)[C@@H]2CN(C)C[C@H]2c2ccc(F)cc2F)C[C@H](C)[C@@]1(O)c1ccc(F)cc1
81 nM	–	–	C[C@@H]1CN(C(=O)[C@H]2CN(CC3CC3)C[C@@H]2c2ccc(F)cc2F)C[C@H](C)[C@@]1(O)c1ccccc1
126 nM	–	EC50 [5]: 3610 nM; Emax [10]: 95%; Ki (Melanocortin receptor 4 [6]): 844 nM; EC50 (Melanocortin receptor 3 [8]): > 24700 nM	CCC[C@@]1(O)[C@H](C)CN(C(=O)[C@@H]2CN(C(C)(C)C)C[C@H]2c2ccc(F)cc2F)C[C@@H]1C
15 nM	22 µL/min/mg	logD [2]: 3.5	C[C@@H]1CN(C(=O)[C@@H]2CN(C(C)(C)C)C[C@H]2c2ccc(F)cc2F)C[C@H](C)[C@@]1(O)c1ccc(F)c(F)c1
52 nM	–	–	CC(C)N1C[C@@H](C(=O)N2C[C@@H](C)[C@](O)(c3ccc(F)cc3)[C@@H](C)C2)[C@H](c2ccc(F)cc2F)C1
255 nM	13 µL/min/mg	logD [2]: 1.8	C[C@@H]1CN(C(=O)[C@@H]2CNC[C@H]2c2ccc(F)cc2F)C[C@H](C)[C@@]1(O)c1ccc(F)cc1
40 nM	70 µL/min/mg	logD [2]: 3.2	CC(C)N1C[C@@H](C(=O)N2C[C@@H](C)[C@](O)(c3cccc(F)c3)[C@@H](C)C2)[C@H](c2ccc(F)cc2F)C1
1170 nM	–	–	CC(C)(C)N1C[C@@H](C(=O)N2CCC(O)(c3ccccc3)CC2)[C@H](c2ccc(F)cc2F)C1

EC50 (Melanocortin receptor 4 [1])	microsomal CLint [3]	other results	Compound
130 nM	–	–	C[C@@H]1CN(C(=O)[C@@H]2CN(C)C[C@H]2c2ccc(F)cc2F)C[C@H](C)[C@@]1(O)c1ccc(Cl)cc1
288 nM	7 µL/min/mg	–	C[C@@H]1CN(C(=O)[C@@H]2CNC[C@H]2c2ccc(F)cc2F)C[C@H](C)[C@@]1(O)c1ccc(F)c(F)c1
51 nM	–	–	CCN1C[C@@H](C(=O)N2C[C@@H](C)[C@](O)(c3ccc(F)cc3F)[C@@H](C)C2)[C@H](c2ccc(F)cc2F)C1
626 nM	–	–	CC(C)[C@@]1(O)[C@H](C)CN(C(=O)[C@@H]2CN(C(C)(C)C)C[C@H]2c2ccc(F)cc2F)C[C@@H]1C
159 nM	–	–	C[C@@H]1CN(C(=O)[C@@H]2CNC[C@H]2c2ccc(F)cc2F)C[C@H](C)[C@@]1(O)c1cccc(F)c1
82 nM	–	Emax (Melanocortin receptor 3 [9]): 42%; EC50 [5]: > 16700 nM; Ki (Melanocortin receptor 4 [6]): 172 nM; EC50 (Melanocortin receptor 3 [8]): 4130 nM	C[C@@H]1CN(C(=O)[C@H]2CN(c3cccnn3)C[C@@H]2c2ccc(F)cc2F)C[C@H](C)[C@@]1(O)C1CC1
53 nM	–	–	COc1ccc([C@@]2(O)[C@H](C)CN(C(=O)[C@@H]3CN(C(C)(C)C)C[C@H]3c3ccc(F)cc3F)C[C@@H]2C)cc1
220 nM	–	–	CC(C)N1C[C@@H](C(=O)N2C[C@@H](C)[C@](O)(c3ccc(F)cc3F)[C@@H](C)C2)[C@H](c2ccc(F)cc2F)C1
3900 nM	–	–	C[C@@H]1CN(C(=O)C2CN(C(C)(C)C)CC2c2ccc(F)cc2F)C[C@H](C)[C@@]1(O)c1ccccc1 (mixture of isomers)
717 nM	–	EC50 [5]: > 7810 nM; Ki (Melanocortin receptor 4 [6]): 1070 nM; EC50 (Melanocortin receptor 5 [7]): > 20000 nM; EC50 (Melanocortin receptor 3 [8]): > 19100 nM	C[C@@H]1CN(C(=O)[C@@H]2CN(C)C[C@H]2c2ccc(F)cc2F)C[C@H](C)[C@@]1(O)c1ccccc1
111 nM	–	–	C[C@@H]1CN(C(=O)[C@H]2CN(c3cnccn3)C[C@@H]2c2ccc(F)cc2F)C[C@H](C)[C@@]1(O)c1ccccc1
73 nM	–	–	CC(C)CN1C[C@H](C(=O)N2C[C@@H](C)[C@](O)(c3ccccc3)[C@@H](C)C2)[C@@H](c2ccc(F)cc2F)C1
962 nM	14 µL/min/mg	logD [2]: 2.2	C[C@@H]1CN(C(=O)[C@@H]2CN(C(C)(C)C)C[C@H]2c2ccc(F)cc2F)C[C@H](C)[C@@]1(O)C1CC1
19 nM	–	–	CCCN1C[C@H](C(=O)N2C[C@@H](C)[C@](O)(c3ccccc3)[C@@H](C)C2)[C@@H](c2ccc(F)cc2F)C1
89 nM	–	–	CC(C)[C@@]1(O)[C@H](C)CN(C(=O)[C@H]2CN(c3cccnn3)C[C@@H]2c2ccc(F)cc2F)C[C@@H]1C
117 nM	–	–	C[C@@H]1CN(C(=O)[C@H]2CN(c3cncnc3)C[C@@H]2c2ccc(F)cc2F)C[C@H](C)[C@@]1(O)c1ccccc1
257 nM	28 µL/min/mg	logD [2]: 3.3	CC(C)N1C[C@@H](C(=O)N2C[C@@H](C)[C@](O)(c3ccc(F)c(F)c3)[C@@H](C)C2)[C@H](c2ccc(F)cc2F)C1
644 nM	–	–	C[C@@H]1CN(C(=O)[C@@H]2CN(C(C)(C)C)C[C@H]2c2ccc(F)cc2F)C[C@H](C)[C@@]1(O)c1cccc(C#N)c1
85 nM	–	–	CCN1C[C@@H](C(=O)N2C[C@@H](C)[C@](O)(c3ccccc3)[C@@H](C)C2)[C@H](c2ccc(F)cc2F)C1
69 nM	–	–	CCN1C[C@@H](C(=O)N2C[C@@H](C)[C@](O)(c3ccc(F)c(F)c3)[C@@H](C)C2)[C@H](c2ccc(F)cc2F)C1
243 nM	–	EC50 [5]: > 10000 nM; Ki (Melanocortin receptor 4 [6]): 300 nM; EC50 (Melanocortin receptor 5 [7]): > 11100 nM; EC50 (Melanocortin receptor 3 [8]): > 26700 nM	C[C@@H]1CN(C(=O)[C@H]2CN(c3ncccn3)C[C@@H]2c2ccc(F)cc2F)C[C@H](C)[C@@]1(O)c1ccccc1
